“Also recorded” adds a separate entry of the source.
Legend:
[1] = test system: purified Hb Yakima; test: Effect on purified Hb Yakima; type: biochemical, human
[2] = target: hemoglobin in fresh human red blood cells (Homo sapiens, UniProt P68871+P69905); test: Oxygen equilibrium curves of fresh human red cell suspensions (p50); type: cell-based; conditions: presence of DIDS
Protocol: Human blood was collected on heparin from healthy nonsmoking donors. Bovine blood was provided by Pr Delpech, INA (Paris-Grignon). Red blood cells were washed three times in isotonic buffer, kept at 4° C., and used within 24 h after sampling. Hemoglobin Yakima, a high-oxygen-affinity variant [α2 β2 99 (G1) Asp>>His], was obtained from a known heterozygous carrier. Fresh Yakima red cells were processed in the same way as described above.
L3,5 and L3,4,5 were provided by Dr. Lalezari (Montefiore Hospital, New York); RSR-4 [2-[4-[[(3,5-dichloroanilino)carbonyl]methyl]phenoxy]-2-methylpropionic acid]and RSR13 [2-4-[[(3,5- dimethylanilino)carbonyl]methyl]phenoxy]-2-methylpropionic acid] have been synthesized following the procedure described in Randad et al. (J. Med. Chem. 34,752 (1991)). Human serum albumin (HSA), bovine serum albumin (BSA) and 4,4'diisothiocyanatostilbene-2,2'-disulfonate (DIDS) were purchased from Sigma (St. Louis, Mo.). Due to their low solubility in aqueous buffer, 10 mM stock solutions of the compounds were prepared in a slight exccess of sodium bicarbonate and back-titrated to pH 7.4. For example, RSR-4 or RSR-13 was dissolved at 60° C. in a 140 mM NaCl and 50 mM bis-Tris buffer at room temperature upon progressive addition of NaHCO3 to obtain 10 mM stock solutions. The pH was carefully adjusted to 7.4 after complete solubilization and before use of the solutions. Fresh solutions were prepared each week. Stock solutions of DIDS (1 mM) were prepared, in the dark, on the day of the experiments in a pH 7.4 buffer. Human serum albumin (defatted HSA) and bovine serum albumin (BSA) were prepared freshly as 1 mM stock solutions, pH 7.4. Equilibrium Measurements. The allosteric modulation of the effectors on freshly prepared solutions of hemoglobin or red cell suspensions was measured by the change in p50, the partial pressure of oxygen for half-saturation. Oxygen equilibrium curves (OEC) were carried out with the Hemox analyzer (TCS, Southampton, Pa.) under the following conditions: pH 7.4, 140 mM NaCl and 50 mM bis-Tris buffer at 37° C. In all experiments, the concentration of hemoglobin in the red cell suspensions was 20-25 μM hemoglobin tetramer (Hb4) as measured by Drabkin's method (cyanomethemoglobin) at the end of each recording. The final concentration of the allosteric effector in the cuvette was 0.5 mM, resulting in an effector/Hb4 ratio of 20 in the absence of albumin. OEC were also made in the same buffer containing 12.5, 25, 50, and 100 μM HSA (for human red cell suspensions) or BSA (for bovine cell suspensions). The serum albumin experiments were carried out with traces of an antifoaming agent. This agent has no deleterious effect on the red cell suspensions. The molar ratio of albumin to tetrameric hemoglobin was varied from 0.5 (at 12.5 μM HSA) to 4 (at 100 μM HSA); in whole blood this ratio is approximately 0.3 (0.7 mM albumin plus plasma proteins/2.25 mM Hb4). Therefore, the concentration of albumin used in the present studies was always larger relative to tetrameric hemoglobin than that found in whole blood.
Equilibrium oxygen binding curves were also recorded for red cell suspensions (10% hematocrit) that had been reacted for 30 min in the dark at 37° C. with 20 μM DIDS, a specific inhibitor of the red cell membrane anion channel. Kinetic Experiments. The kinetics of the interaction between the effectors and intracellular hemoglobin were measured in the absence and presence of varying concentrations of HSA. The red cell suspensions were equilibrated under room air (pO2 =140 mmHg) at 37° C. in the optical cuvette of the Hemox analyzer, which provides a constant stirring of the suspensions. […] Changes in absorbance were recorded and stored on tape for further analyses. […]

[3] = target: T1, deoxyhemoglobin (Homo sapiens, UniProt P68871+P69905); test: X-ray crystallographic studies with deoxyhemoglobin; type: binding; conditions: near Arg 104β
Protocol: X-ray Crystallographic Studies. Hemoglobin for the crystal studies was prepared from human blood, and T-state deoxy crystals were obtained from ammonium sulfate solutions. RSR-4 or RSR-13 (2 effectors/I Hb) was dissolved in a slight excess of sodium bicarbonate to facilitate dissolution and was added to a 6 g % solution of deoxy-Hb in the glove box. A 1 g % Hb RSR-4 or RSR-13 solution was added to each crystallization tube. Crystals grew in approximately 1 week. X-ray data were collected with Friedel pairs using ω scans on a Rigaku AFC5R diffractometer equipped with a rotating anode and a 60-cm long evacuated beam tunnel. The crystals with allosteric effectors were isomorphous with native deoxy-Hb: RSR-4, 63.2, 83.7, and 53.8 Å, 99.4°; RSR-13, 63.2, 83.6, and 53.7 Å, 99.5°. Data collection (RSR-4 to 2.4-Å and RSR-13 to 2.8-Å resolution) was controlled by TEXAN software from Molecular Structure Corp. (The Woodlands, Tex.). There was little radiation damage to crystals, and new crystals were mounted when standard reference reflection intensities fell by 10%. All data were corrected for radiation damage when appropriate. The R-factors for the Friedel pairs and derivatives vs. native were as follows: RSR-4 (2.4 Å), 14.6% and 18.9%, and RSR-13 (2.8 Å), 7.2% and 12.5%, respectively. The difference electron density maps were obtained using the Cambridge computer programs (CCP4). […] The allosteric effector molecules were well resolved and easily fit to the difference density.

[4] = test system: hemoglobin; test: Comparison of allosteric effector strength (right shift of oxygen equilibrium curve); type: biochemical; conditions: compounds of FIG. 1
[5] = test system: human red cells; test: Hemolysis of human red cells in vitro; type: cell-based
[6] = test system: bovine red cells; test: Hemolysis of bovine red cells in vitro; type: cell-based
[7] = target: T1, deoxyhemoglobin; conditions: X-ray, literature; cited from earlier work
[8] = test system: hemoglobin; conditions: hemoglobin solutions, fresh intact red cells; cited from earlier work
[9] = cited from earlier work

Compound | state of purified Hb Yakima in the presence of effector [1] | second symmetry-related pair of binding sites [3] | allosteric effector strength [4] | binding site in deoxyhemoglobin (prior art, words) [7] | lowering of oxygen affinity / allosteric potency (prior art, words) [8] | other results
O=C(O)C(COP(=O)(O)O)OP(=O)(O)O (stereo not shown) [DPG, 2,3-diphospho-glyceric acid] | remains locked in the high-affinity R-state |  |  |  |  | 
CC(C)(Oc1ccc(NC(=O)Nc2cc(Cl)c(Cl)c(Cl)c2)cc1)C(=O)O [L3,4,5, reference compound] | remains locked in the high-affinity R-state | have a second symmetry-related pair of binding sites near Arg 104β | much stronger allosteric effect |  |  | effect of DIDS (anion channel inhibitor) on the effect of the compounds [2]: does not inhibit the effects of the compounds
Cc1cc(C)cc(NC(=O)Cc2ccc(OC(C)(C)C(=O)O)cc2)c1 [RSR-3] |  |  |  |  |  | hemolysis [5]: No hemolysis; hemolysis [6]: No hemolysis
CC(C)(Oc1ccc(CCNC(=O)c2ccc(Cl)cc2)cc1)C(=O)O [bezafibrate] |  |  | weakest effector; also recorded: much stronger allosteric effect | bind to the same sites in the central water cavity of deoxyhemoglobin | much more effective in lowering the oxygen affinity of hemoglobin solutions and suspensions of fresh, intact red cells | inhibition of effect by serum albumin (prior art, words) [9]: significantly inhibited by serum albumin
CC(C)(Oc1ccc(Cl)cc1)C(=O)O [clofibric acid] |  |  | only a relatively small effect in terms of lowering the oxygen affinity of hemoglobin | bind to the same sites in the central water cavity of deoxyhemoglobin | lowered the oxygen affinity of hemoglobin solutions | 
CC(C)(Oc1ccc(CNC(=O)c2ccc(Cl)cc2)cc1)C(=O)O [MM-25] |  | have a second symmetry-related pair of binding sites near Arg 104β | somewhat stronger than bezafibrate |  |  | 

Reference: patent US5661182A, “Method for lowering oxygen affinity of hemoglobin in redcell suspensions, in whole blood and in vivo” (Virginia Commonwealth University, priority 1995, dated 1997)
